Experimental findings from patent US20240238423A9, “TETRAHYDROISOQUINOLINE HETEROBIFUNCTIONAL BCL-XL DEGRADERS” (Treeline Biosciences, Inc., priority 2022, published 2024) are described below.

SMILES strings stand for the structures. Where two headings read alike, the source gives them in different places.

This experiment has as its target T1, Human BCL-XL protein (N-terminal HiBiT tagged BCL-XL in HT1080 cells) (Homo sapiens, UniProt Q07817).
T1 construct: expressed in transfected cells; host or cells: HT-1080 (ATCC CCL-121), stably transduced with lentivirus pLV-UBC-N-HiBiT-BCL-XL-PGK-puro and selected with puromycin
The experiment in a line: HiBiT based degradation assay. In kind it is cell-based. Particulars: HT1080 cells expressing HiBiT-BCL-XL; for Ymin (24 h) / Ymin (6 h): BCL-XL degradation normalized with DMSO control; for DC50: BCL-XL degradation. In short, it runs like this:
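HT1080 cells stably transduced by lentivirus with N-terminally HiBiT-tagged human BCL-XL and kept under 1 μg/mL puromycin selection were seeded at three thousand cells per well in 40 μL RPMI 1640 into 384-well plates pre-spotted with compounds across a concentration range. Luminescence was read on a PHERAstar FSX, normalized to DMSO, and fitted with a four-parameter logistic model.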

T1 sequence (Q07817 whole entry): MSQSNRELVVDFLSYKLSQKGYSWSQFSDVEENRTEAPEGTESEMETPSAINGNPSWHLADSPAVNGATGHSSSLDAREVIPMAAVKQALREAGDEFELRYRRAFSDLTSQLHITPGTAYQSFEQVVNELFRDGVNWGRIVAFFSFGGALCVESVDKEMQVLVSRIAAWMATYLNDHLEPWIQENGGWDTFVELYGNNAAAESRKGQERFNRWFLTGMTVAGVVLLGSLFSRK

Take `Cc1c(OCC[C@@H]2CC23CCN(CC(=O)Nc2ccc4c(C5CCC(=O)NC5=O)nn(C)c4c2)CC3)cccc1-c1ccc(N2CCc3cccc(C(=O)Nc4nc5ccccc5s4)c3C2)nc1C(=O)O` (single isomer, unassigned) [Compound 289a]: the “Ymin (24 h)” value (24 h) is “A (Ymin < 50%)”. The DC50 (24 h, read-out: EC50 (24 h)) was less than 100 nM.
On to `Cc1c(O[C@H]2CC[C@H](CCCCN3CC[C@@H](c4cccc5c(C6CCC(=O)NC6=O)nn(C)c45)C3)CC2)cccc1-c1ccc(N2CCc3cccc(C(=O)Nc4nc5ccccc5s4)c3C2)nc1C(=O)O` (single isomer, unassigned) [Compound 321b], for which the “Ymin (24 h)” value (24 h) is recorded as “A (Ymin < 50%)”. Besides, where the note is “24 h, read-out: EC50 (24 h)”, the DC50 was less than 100 nM.
On to `Cc1c(OCC2CC3(CCN(CCN4CCN(c5cccc6c(C7CCC(=O)NC7=O)nn(C)c56)CC4)CC3)C2)cccc1-c1ccc(N2CCc3cccc(C(=O)Nc4nc5ccccc5s4)c3C2)nc1C(=O)O` (centres unmarked) [Compound 188, 6-[8-(1,3-benzothiazol-2-ylcarbamoyl)-3,4-dihydro-1H-isoquinolin-2-yl]-3-[3-[[7-[2-[4-[3-(2,6-dioxo-3-piperidyl)-1-methyl-indazol-7-yl]piperazin-1-yl]ethyl]-7-azaspiro[3.5]nonan-2-yl]methoxy]-2-methyl-phenyl]pyridine-2-carboxylic acid], for which the “Ymin (24 h)” value (24 h) is “A (Ymin < 50%)”. In addition, the DC50 (24 h, read-out: EC50 (24 h)) was less than 100 nM.
Regarding `Cc1c(OCCCC2CCN([C@@H](C)C(=O)Nc3cccc4c(C5CCC(=O)NC5=O)nn(C)c34)CC2)cccc1-c1ccc(N2CCc3cccc(C(=O)Nc4nc5ccccc5s4)c3C2)nc1C(=O)O` (stereo partly drawn) [Compound 216a, 6-(8-(benzo[d]thiazol-2-ylcarbamoyl)-3,4-dihydroisoquinolin-2(1H)-yl)-3-(3-(3-(1-((2S)-1-((3-(2,6-dioxopiperidin-3-yl)-1-methyl-1H-indazol-7-yl)amino)-1-oxopropan-2-yl)piperidin-4-yl)propoxy)-2-methylphenyl)picolinic acid], where the note is “24 h”, the “Ymin (24 h)” value is listed as “B (50% ≤ Ymin < 70%)”. Also, the DC50 (24 h, read-out: EC50 (24 h)) is less than 100 nM.
In the case of `Cc1c(Oc2ccc(CC(F)(F)CN3CCN(c4cccc5c(C6CCC(=O)NC6=O)nn(C)c45)CC3)cc2)cccc1-c1ccc(N2CCc3cccc(C(=O)Nc4nc5ccccc5s4)c3C2)nc1C(=O)O` (centres unmarked) [Compound 201, 6-[8-(1,3-benzothiazol-2-ylcarbamoyl)-3,4-dihydro-1H-isoquinolin-2-yl]-3-[3-[4-[3-[4-[3-(2,6-dioxo-3-piperidyl)-1-methyl-indazol-7-yl]piperazin-1-yl]-2,2-difluoro-propyl]phenoxy]-2-methyl-phenyl]pyridine-2-carboxylic acid], the “Ymin (6 h)” value (6 h) is “B (50% ≤ Ymin < 70%)”. Moreover, the “Ymin (24 h)” value (24 h) is listed as “A (Ymin < 50%)”. In addition, the DC50 lay within 1000 to 10000 nM (6 h, read-out: EC50 (6 h)) and 1000 to 10000 nM (24 h, read-out: EC50 (24 h)).
For `Cc1c(OCCC2CCN(CC(=O)Nc3ccc4c(C5CCC(=O)NC5=O)nn(C)c4c3)CC2)cccc1-c1ccc(N2CCc3cccc(C(=O)Nc4nc5ccccc5s4)c3C2)nc1C(=O)O` (centres unmarked) [Compound 106, 6-[8-(1,3-benzothiazol-2-ylcarbamoyl)-3,4-dihydro-1H-isoquinolin-2-yl]-3-[3-[2-[1-[2-[[3-(2,6-dioxo-3-piperidyl)-1-methyl-indazol-6-yl]amino]-2-oxo-ethyl]-4-piperidyl]ethoxy]-2-methyl-phenyl]pyridine-2-carboxylic acid], the “Ymin (6 h)” value (6 h) is recorded as “A (Ymin < 50%)”. The “Ymin (24 h)” value (24 h) was “A (Ymin < 50%)”. The DC50 was less than 100 nM (6 h, read-out: EC50 (6 h)) and less than 100 nM (24 h, read-out: EC50 (24 h)).
`Cc1c(OCCCCN2CCC(CN3CCN(c4ccc5c(C6CCC(=O)NC6=O)nn(C)c5c4)CC3)CC2)cccc1-c1ccc(N2CCc3cccc(C(=O)Nc4nc5ccccc5s4)c3C2)nc1C(=O)O` (centres unmarked) [Compound 235, 6-[8-(1,3-benzothiazol-2-ylcarbamoyl)-3,4-dihydro-1H-isoquinolin-2-yl]-3-[3-[4-[4-[[4-[3-(2,6-dioxo-3-piperidyl)-1-methyl-indazol-6-yl]piperazin-1-yl]methyl]-1-piperidyl]butoxy]-2-methyl-phenyl]pyridine-2-carboxylic acid]: the “Ymin (24 h)” value (24 h) is recorded as “A (Ymin < 50%)”. Besides, the DC50 (24 h, read-out: EC50 (24 h)) was less than 100 nM.
Turning to `Cc1c(Oc2ccc(CCCNc3ccc4c(C5CCC(=O)NC5=O)nn(C)c4c3)cc2)cccc1-c1ccc(N2CCc3cccc(C(=O)Nc4nc5ccccc5s4)c3C2)nc1C(=O)O` (centres unmarked) [Compound 123, 6-[8-(1,3-benzothiazol-2-ylcarbamoyl)-3,4-dihydro-1H-isoquinolin-2-yl]-3-[3-[4-[3-[[3-(2,6-dioxo-3-piperidyl)-1-methyl-indazol-6-yl]amino]propyl]phenoxy]-2-methyl-phenyl]pyridine-2-carboxylic acid], where the note is “6 h”, the “Ymin (6 h)” value was “C (Ymin ≥ 70%)”. Further, under “6 h, read-out: EC50 (6 h)”, the DC50 lay within 100 to 1000 nM.
For the molecule `Cc1c(OCC[C@@H]2CCCN(CC(=O)Nc3ccc4c(C5CCC(=O)NC5=O)nn(C)c4c3)C2)cccc1-c1ccc(N2CCc3cccc(C(=O)Nc4nc5ccccc5s4)c3C2)nc1C(=O)O` (stereo partly drawn) [Compound 180a, 6-(8-(benzo[d]thiazol-2-ylcarbamoyl)-3,4-dihydroisoquinolin-2(1H)-yl)-3-(3-(2-((3S)-1-(2-((3-(2,6-dioxopiperidin-3-yl)-1-methyl-1H-indazol-6-yl)amino)-2-oxoethyl)piperidin-3-yl)ethoxy)-2-methylphenyl)picolinic acid], the “Ymin (24 h)” value (24 h) was “B (50% ≤ Ymin < 70%)”. Further, the DC50 (24 h, read-out: EC50 (24 h)) is less than 100 nM.
With `Cc1c(Oc2ccc(CCCN3CCN(c4ccc5c(C6CCC(=O)NC6=O)nn(C)c5c4)CC3)cc2)cccc1-c1ccc(N2CCc3cccc(C(=O)Nc4nc5ccccc5s4)c3C2)nc1C(=O)O` (centres unmarked) [Compound 149, 6-(8-(benzo[d]thiazol-2-ylcarbamoyl)-3,4-dihydroisoquinolin-2(1H)-yl)-3-(3-(4-(3-(4-(3-(2,6-dioxopiperidin-3-yl)-1-methyl-1H-indazol-6-yl)piperazin-1-yl)propyl)phenoxy)-2-methylphenyl)picolinic acid], for the setting “6 h”, the “Ymin (6 h)” value is recorded as “B (50% ≤ Ymin < 70%)”. For the same molecule, for the setting “24 h”, the “Ymin (24 h)” value is reported as “A (Ymin < 50%)”. In addition, the DC50 is less than 100 nM (6 h, read-out: EC50 (6 h)) and less than 100 nM (24 h, read-out: EC50 (24 h)).
Turning to `Cc1c(OCC(F)(F)CN2C[C@@H](C)N(CC(=O)N3CCN(c4cccc5c(C6CCC(=O)NC6=O)nn(C)c45)CC3)[C@@H](C)C2)cccc1-c1ccc(N2CCc3cccc(C(=O)Nc4nc5ccccc5s4)c3C2)nc1C(=O)O` (stereo partly drawn) [Compound 179a, 6-[8-(1,3-benzothiazol-2-ylcarbamoyl)-3,4-dihydro-1H-isoquinolin-2-yl]-3-[3-[3-[(3R,5S)-4-[2-[4-[3-(2,6-dioxo-3-piperidyl)-1-methyl-indazol-7-yl]piperazin-1-yl]-2-oxo-ethyl]-3,5-dimethyl-piperazin-1-yl]-2,2-difluoro-propoxy]-2-methyl-phenyl]pyridine-2-carboxylic acid], the “Ymin (24 h)” value (24 h) is given as “A (Ymin < 50%)”. For the same molecule, the DC50 (24 h, read-out: EC50 (24 h)) is less than 100 nM.
As to `Cc1c(O[C@H]2CC[C@H](CCCN3CCN(c4cccc5c(C6CCC(=O)NC6=O)nn(C)c45)CC3)CC2)cccc1-c1ccc(N2CCc3cccc(C(=O)Nc4nc5ccccc5s4)c3C2)nc1C(=O)O` (some centres unmarked) [Compound 147a, 6-(8-(benzo[d]thiazol-2-ylcarbamoyl)-3,4-dihydroisoquinolin-2(1H)-yl)-3-(3-(((1s,4r)-4-(3-(4-(3-(2,6-dioxopiperidin-3-yl)-1-methyl-1H-indazol-7-yl)piperazin-1-yl)propyl)cyclohexyl)oxy)-2-methylphenyl)picolinic acid], the “Ymin (6 h)” value (6 h) is on record as “B (50% ≤ Ymin < 70%)”. The “Ymin (24 h)” value (24 h) is listed as “A (Ymin < 50%)”. Besides, the DC50 reads like this: (6 h, read-out: EC50 (6 h)) less than 100 nM; (24 h, read-out: EC50 (24 h)) less than 100 nM.
On to `Cc1cc(O[C@@H](C)CCC2CCN(CC(=O)Nc3ccc4c(C5CCC(=O)NC5=O)nn(C)c4c3)CC2)ccc1-c1ccc(N2CCc3cccc(C(=O)Nc4nc5ccccc5s4)c3C2)nc1C(=O)O` (stereo in doubt) [Compound 276b, 6-[8-(1,3-benzothiazol-2-ylcarbamoyl)-3,4-dihydro-1H-isoquinolin-2-yl]-3-[4-[(1S)-3-[1-[2-[[3-(2,6-dioxo-3-piperidyl)-1-methyl-indazol-6-yl]amino]-2-oxo-ethyl]-4-piperidyl]-1-methyl-propoxy]-2-methyl-phenyl]pyridine-2-carboxylic acid], for which the “Ymin (24 h)” value (24 h) is “A (Ymin < 50%)”. For the same molecule, the DC50 (24 h, read-out: EC50 (24 h)) was less than 100 nM.
Regarding `Cc1c(OCCC[C@H]2CCN(CC(=O)Nc3ccc4c(C5CCC(=O)NC5=O)nn(C)c4c3)[C@@H](C)C2)cccc1-c1ccc(N2CCc3cccc(C(=O)Nc4nc5ccccc5s4)c3C2)nc1C(=O)O` (stereo partly drawn) [Compound 343d, 6-[8-(1,3-benzothiazol-2-ylcarbamoyl)-3,4-dihydro-1H-isoquinolin-2-yl]-3-[3-[3-[(2S,4S)-1-[2-[[3-(2,6-dioxo-3-piperidyl)-1-methyl-indazol-6-yl]amino]-2-oxo-ethyl]-2-methyl-4-piperidyl]propoxy]-2-methyl-phenyl]pyridine-2-carboxylic acid], where the note is “24 h”, the “Ymin (24 h)” value is listed as “A (Ymin < 50%)”. Where the note is “24 h, read-out: EC50 (24 h)”, the DC50 was less than 100 nM.
For `Cc1c(OCCCN2CCN(CC(=O)Nc3cccc4c(C5CCC(=O)NC5=O)nn(C)c34)C[C@@H]2C(F)(F)F)cccc1-c1ccc(N2CCc3cccc(C(=O)Nc4nc5ccccc5s4)c3C2)nc1C(=O)O` (stereo partly drawn) [Compound 246a, 6-(8-(benzo[d]thiazol-2-ylcarbamoyl)-3,4-dihydroisoquinolin-2(1H)-yl)-3-(3-(3-((2R)-4-(2-((3-(2,6-dioxopiperidin-3-yl)-1-methyl-1H-indazol-7-yl)amino)-2-oxoethyl)-2-(trifluoromethyl)piperazin-1-yl)propoxy)-2-methylphenyl)picolinic acid], under “24 h”, the “Ymin (24 h)” value is on record as “B (50% ≤ Ymin < 70%)”. For the setting “24 h, read-out: EC50 (24 h)”, the DC50 is less than 100 nM.
